#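 A five-concentration, 48-hour dose response in 96-well plates underlies each endpoint, interpolated linearly between surrounding concentrations. TGI: concentration producing complete growth inhibition.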 Where a SMILES comes first, the peptide text is derived from it. The star is where a group is joined. Boc = CC(C)(C)OC(=O)*; OBn = c1ccc(CO*)cc1
# Columns and labels:
# Assay in all cases: NCI anticancer screen, dose series, 48 h
# [1] = system: U251 CNS
# [2] = system: RPMI-8226 leukemia
# [3] = system: NCI-H522 lung
# [4] = system: NCI-H460 lung
# [5] = system: HOP-92 NSCLC
# [6] = system: OVCAR-5 ovarian
# [7] = system: MOLT-4 leukemia
# [8] = system: MDA-N
# [9] = system: HOP-62 NSCLC
# [10] = system: SNB-75 CNS
SMILES,TGI [1] [µM],TGI [2] [µM],TGI [3] [µM],TGI [4] [µM],TGI [5] [µM],TGI [6] [µM],TGI [7] [µM],TGI [8] [µM],TGI [9] [µM],TGI [10] [µM]
CCOC(=O)C(NC(=O)CC)(Nc1ccc(S(=O)(=O)Nc2onc(C)c2C)cc1)C(F)(F)F (stereo not given),> 100,> 100,> 100,> 100,> 100,> 100,> 100,> 100,> 100,> 100
O=S(=O)(c1ccc(-c2nnc(-c3ccc(F)cc3)o2)cc1)c1ccc(-c2nnc(-c3ccc(F)cc3)o2)cc1,> 100,> 100,> 100,> 100,> 100,> 100,> 100,> 100,> 100,26
CCCCCCCCCC(=O)N[C@@H](c1ccco1)[C@@H](O)C(=O)O[C@H]1C[C@@]2(O)[C@@H](OC(=O)c3ccccc3)[C@@H]3[C@]4(OC(C)=O)CO[C@@H]4C[C@H](O)[C@@]3(C)C(=O)[C@H](OC(C)=O)C(=C1C)C2(C)C,2.34,0.0483,0.631,8.9,21.2,0.151,2.3,0.00909,1.68,
OCC(CCc1ccccc1I)C1=CCC2(CC1)OCCO2 (stereo not given),41.8,> 100,30.3,57.7,28.6,34.1,> 100,36.5,37.4,52
Cc1nc2n(c1/C=C1/C(=O)Nc3ccccc31)CCS2,> 100,> 100,> 100,> 100,> 100,> 100,> 100,44.4,> 100,87
Cc1ccc(S(=O)(=O)NC(=O)NC(CCCCN=C(N)N)C(=O)O)cc1 (stereo not given),> 100,> 100,> 100,> 100,> 100,,> 100,> 100,> 100,> 100
CC(C)=CCOc1cc(NC(=S)c2ccsc2C)ccc1Cl,> 100,53.1,> 100,> 100,37.1,> 100,> 100,> 100,58.9,66.4
Cn1c([C@H](C#N)C(=O)c2cc(O)ccc2[N+](=O)[O-])nc2ccccc21,> 100,> 100,> 100,> 100,> 100,> 100,> 100,> 100,> 100,> 100
Nc1nccc(NCC2(CO)CCC2)n1,> 100,> 100,> 100,> 100,> 100,> 100,> 100,> 100,> 100,> 100
COC(=O)c1c(C)cccc1C1CN=NC12Cc1ccc(C)c(C)c1C2=O (stereo not given),> 100,> 100,75.4,> 100,> 100,> 100,66.4,> 100,> 100,> 100
NC(=O)c1cc(N(CCO)CCO)c([N+](=O)[O-])cc1[N+](=O)[O-],> 100,> 100,> 100,> 100,> 100,> 100,> 100,> 100,> 100,
CC(C)(O)C1CC[C@]2(C)[C@H]3CC[C@@H]4[C@@]5(C)CCCC(C)(C)[C@@H]5CC[C@@]4(C)[C@]3(C)CC[C@@H]12 (stereo not given in full),> 100,> 100,> 100,> 100,> 100,> 100,> 100,> 100,> 100,
Cc1ccc(-c2cc(O)c3nc4ccccc4n3c2)cc1,> 100,> 100,> 100,> 100,> 100,,> 100,> 100,> 100,> 100
O=C1C=C2CCC[C@H]3OC(=O)C[C@@]23CC1,> 100,> 100,> 100,> 100,> 100,> 100,> 100,> 100,> 100,
Cc1ccc(S(=O)(=O)[C@@H](Cl)[C@H]2N=C(Cl)NN=C2c2ccccc2)cc1,55.9,> 100,35.9,> 100,54.3,> 100,83.1,74.4,42.7,97.4
Cc1ccc(-c2nnc(CCCCCCCCc3nnc(-c4ccc(C)cc4O)n3N)n2N)c(O)c1,> 100,> 100,> 100,> 100,> 100,> 100,> 100,> 100,,> 100
Cc1nnc2n(c1=O)CCN2C,> 100,> 100,,> 100,> 100,> 100,> 100,> 100,> 100,> 100
O=c1[nH]c(=O)n(COCCO)c2ccsc12,> 100,> 100,> 100,> 100,> 100,> 100,> 100,> 100,> 100,> 100
NC(Cc1c[nH]c2cc([N+](=O)[O-])ccc12)C(=O)O (stereo not given),> 100,> 100,> 100,> 100,> 100,> 100,> 100,> 100,> 100,> 100
CS[C@]12[C@@H]3C(=O)N(C)C(=O)[C@@H]3[C@](C)(C(=O)N1C)C(=O)N2c1ccccc1,> 100,> 100,> 100,,> 100,> 100,> 100,> 100,> 100,> 100
O=[N+]([O-])c1ccc2oc(=Nc3ccccc3)c(Nc3ccccc3)nc2c1,> 100,> 100,67.2,> 100,93,> 100,> 100,> 100,> 100,79.6
CC(=O)OC1C2CCC3C(C)(O)C4CC(O)C(C)(C)C4(O)C(O)CC13CC2(C)O (stereo not given),,> 100,> 100,,> 100,> 100,,> 100,> 100,> 100
Oc1ccccc1C1C=C(c2ccccc2)NC(N2CCCCC2)=C1c1nc2ccccc2[nH]1 (stereo not given),28.4,49,27.7,28,26.9,32,57.6,26.6,27.4,18.3
COC(=O)CCc1c(Cc2ccc[nH]2)[nH]c(C(=O)OCc2ccccc2)c1C,44.1,76.5,54.4,> 100,51.4,> 100,52.7,34.4,39.9,
CC(C)CC(NC(=O)OC(C)(C)C)C(=O)NC(CC(=O)OCc1ccccc1)C(=O)OCc1ccccc1 (stereo not drawn) (Boc-Leu-Asp(OBn)-OBn; configuration not given here),81.7,97.3,79.2,> 100,> 100,> 100,76.9,> 100,> 100,> 100
COc1ccc(C2OCCN2C)cc1 (stereo not given),> 100,> 100,> 100,> 100,> 100,> 100,> 100,> 100,> 100,> 100
COC(=O)c1c(CC(Cc2ccc3c(c2)CCCC3)C(=O)OC)ccc2c1CCCC2 (stereo not given),> 100,> 100,> 100,> 100,> 100,> 100,> 100,> 100,> 100,
CC(C)(C)CC(C)(C)NC(=S)NO,,> 100,> 100,> 100,> 100,> 100,> 100,> 100,> 100,> 100
O=CC(O)C(O)C(O)C1CNC(=S)O1 (stereo not given),> 100,> 100,> 100,> 100,> 100,> 100,> 100,> 100,> 100,> 100
O=Nn1c2ccccc2c2cc([N+](=O)[O-])ccc21,33.1,38.8,29.1,54.2,29.8,47.7,70.9,37.5,25.7,19.5

# — PubChem BioAssay (NCI)
